Laboratory results: patent US7217726B2, “Antibacterial agents” (Orchid Chemicals & Pharmaceuticals Limited, priority 2002, dated 2007)
In brackets after ≈: the same amount, converted by molar mass.

Tests used:
S. aureus MRO 00048 = assay: Agar Dilution Method MIC, S. aureus MRO 00048; assay type: cell-based; conditions: Staphylococcus aureus, MRO00048, Mueller Hinton Agar, 35° Celsius, 20 hours, read-out: Minimum Inhibitory Concentration (MIC in μg/ml)
Protocol: (§1) Briefly, the compounds of invention were weighed, dissolved in Dimethyl Sulfoxide, serially diluted in the same solvent and then incorporated into molten Mueller Hinton Agar in a petridish before solidification, with each petridish containing a different concentration of a compound.
(§2) The Bacterial Inoculum was prepared by touching the tops of 3 to 5 well isolated bacterial colonies with the same morphological appearance from an 18 hour old culture with an inoculating loop, transfering the growth to a tube containing 5 ml of normal saline and adjusting the turbidity of the saline suspension to 0.5 Macfarland Turbidity Standard equivalent to a bacterial population of 1.5×10^8 colony forming units (CFU) per millilitre of suspension.
(§3) The bacterial inoculum prepared in the above manner was inoculated onto petri dishes containing Mueller Hinton Agar which had earlier been incorporated with different dilutions of the compounds of invention by a Multipoint Inoculator with each inoculum spot containing approximately 1×10^4 colony forming units (CFU) of bacteria.
(§4) The inoculated petridishes were incubated at 35° Celsius in an ambient atmosphere for 20 hours. Petridishes containing different concentrations of Vancomycin and Oxacillin and inoculated with Staphylococcus aureus, Coagulase Negative Staphylococci and Enterococci were incubated for 24 hours.

S. aureus ATCC 29213 = assay: Agar Dilution Method MIC, S. aureus ATCC 29213; assay type: cell-based; conditions: Staphylococcus aureus, ATCC29213, Mueller Hinton Agar, 35° Celsius, 20 hours, read-out: Minimum Inhibitory Concentration (MIC in μg/ml)
Protocol: as §1, §2, §3, §4

S. aureus MRO 00059 = assay: Agar Dilution Method MIC, S. aureus MRO 00059; assay type: cell-based; conditions: Staphylococcus aureus, MRO00059, Mueller Hinton Agar, 35° Celsius, 20 hours, read-out: Minimum Inhibitory Concentration (MIC in μg/ml)
Protocol: as §1, §2, §3, §4

[1] = tested on: M. catarrhalis ATCC 43627; assay: Agar Dilution Method MIC, M. catarrhalis ATCC 43627; assay type: cell-based, Morexella catarrhalis; conditions: Moraxella catarrhalis, ATCC43627, Mueller Hinton Agar, 35° Celsius, 20 hours, read-out: Minimum Inhibitory Concentration (MIC in μg/ml)
Protocol: as §1, §2, §3, §4

S. aureus MRO 00055 = assay: Agar Dilution Method MIC, S. aureus MRO 00055; assay type: cell-based; conditions: Staphylococcus aureus, MRO00055, Mueller Hinton Agar, 35° Celsius, 20 hours, read-out: Minimum Inhibitory Concentration (MIC in μg/ml)
Protocol: as §1, §2, §3, §4

E. faecalis ATCC 29212 = assay: Agar Dilution Method MIC, E. faecalis ATCC 29212; assay type: cell-based; conditions: Enterococcus faecalis, ATCC29212, Mueller Hinton Agar, 35° Celsius, 20 hours, read-out: Minimum Inhibitory Concentration (MIC in μg/ml)
Protocol: as §1, §2, §3, §4

E. fecalis MRO 04045 = assay: Agar Dilution Method MIC, E. fecalis MRO 04045; assay type: cell-based; conditions: Enterococcus faecalis, MRO04045, Mueller Hinton Agar, 35° Celsius, 20 hours, read-out: Minimum Inhibitory Concentration (MIC in μg/ml)
Protocol: as §1, §2, §3, §4

E. faecalis ATCC 51299 = assay: Agar Dilution Method MIC, E. faecalis ATCC 51299; assay type: cell-based; conditions: Enterococcus faecalis, ATCC51299, Mueller Hinton Agar, 35° Celsius, 20 hours, read-out: Minimum Inhibitory Concentration (MIC in μg/ml)
Protocol: as §1, §2, §3, §4

S. aureus MRO 00013 = assay: Agar Dilution Method MIC, S. aureus MRO 00013; assay type: cell-based; conditions: Staphylococcus aureus, MRO00013, Mueller Hinton Agar, 35° Celsius, 20 hours, read-out: Minimum Inhibitory Concentration (MIC in μg/ml)
Protocol: as §1, §2, §3, §4

S. epidermidis MRO 02046 = assay: Agar Dilution Method MIC, S. epidermidis MRO 02046; assay type: cell-based; conditions: Staphylococcus epidermidis, MRO02046, Mueller Hinton Agar, 35° Celsius, 20 hours, read-out: Minimum Inhibitory Concentration (MIC in μg/ml)
Protocol: as §1, §2, §3, §4

S. aureus MRO 00003 = assay: Agar Dilution Method MIC, S. aureus MRO 00003; assay type: cell-based; conditions: Staphylococcus aureus, MRO00003, Mueller Hinton Agar, 35° Celsius, 20 hours, read-out: Minimum Inhibitory Concentration (MIC in μg/ml)
Protocol: as §1, §2, §3, §4

[2] = tested on: M. catarrhalis ATCC 43617; assay: Agar Dilution Method MIC, M. catarrhalis ATCC 43617; assay type: cell-based, Morexella catarrhalis; conditions: Moraxella catarrhalis, ATCC43617, Mueller Hinton Agar, 35° Celsius, 20 hours, read-out: Minimum Inhibitory Concentration (MIC in μg/ml)
Protocol: as §1, §2, §3, §4

[3] = tested on: M. catarrhalis ATCC 43628; assay: Agar Dilution Method MIC, M. catarrhalis ATCC 43628; assay type: cell-based, Morexella catarrhalis; conditions: Moraxella catarrhalis, ATCC43628, Mueller Hinton Agar, 35° Celsius, 20 hours, read-out: Minimum Inhibitory Concentration (MIC in μg/ml)
Protocol: as §1, §2, §3, §4

S. aureus MRO 00030 = assay: Agar Dilution Method MIC, S. aureus MRO 00030; assay type: cell-based; conditions: Staphylococcus aureus, MRO00030, Mueller Hinton Agar, 35° Celsius, 20 hours, read-out: Minimum Inhibitory Concentration (MIC in μg/ml)
Protocol: as §1, §2, §3, §4

S. aureus MRO 00001 = assay: Agar Dilution Method MIC, S. aureus MRO 00001; assay type: cell-based; conditions: Staphylococcus aureus, MRO00001, Mueller Hinton Agar, 35° Celsius, 20 hours, read-out: Minimum Inhibitory Concentration (MIC in μg/ml)
Protocol: as §1, §2, §3, §4

S. aureus ATCC 43300 = assay: Agar Dilution Method MIC, S. aureus ATCC 43300; assay type: cell-based; conditions: Staphylococcus aureus, ATCC43300, Mueller Hinton Agar, 35° Celsius, 20 hours, read-out: Minimum Inhibitory Concentration (MIC in μg/ml)
Protocol: as §1, §2, §3, §4

SMILES	MIC (S. aureus MRO 00048) [µg/mL]	MIC (S. aureus ATCC 29213) [µg/mL]	MIC (S. aureus MRO 00059) [µg/mL]	MIC [1] [µg/mL]	MIC (S. aureus MRO 00055) [µg/mL]	MIC (E. faecalis ATCC 29212) [µg/mL]	MIC (E. fecalis MRO 04045) [µg/mL]	MIC (E. faecalis ATCC 51299) [µg/mL]	MIC (S. aureus MRO 00013) [µg/mL]	MIC (S. epidermidis MRO 02046) [µg/mL]	MIC (S. aureus MRO 00003) [µg/mL]	MIC [2] [µg/mL]	MIC [3] [µg/mL]	MIC (S. aureus MRO 00030) [µg/mL]	MIC (S. aureus MRO 00001) [µg/mL]	MIC (S. aureus ATCC 43300) [µg/mL]
CC(=S)NC[C@H]1CN(c2ccc(N3CCN(C(=S)Cc4cccs4)CC3)c(F)c2)C(=O)O1 [Example 13, (S)-N-[3-[3-Fluoro-4-[4-(thiophen-2-ylthioacetyl)piperazin-1-yl]phenyl]-2-oxooxazolidin-5-ylmethyl]thioacetamide]	0.25 (≈ 0.507 µM)	0.25 (≈ 0.507 µM)	0.5 (≈ 1.01 µM)	2 (≈ 4.06 µM)	1 (≈ 2.03 µM)	0.5 (≈ 1.01 µM)	1 (≈ 2.03 µM)	0.5 (≈ 1.01 µM)	1 (≈ 2.03 µM)	0.25 (≈ 0.507 µM)	1 (≈ 2.03 µM)	2 (≈ 4.06 µM)	2 (≈ 4.06 µM)	0.5 (≈ 1.01 µM)	0.25 (≈ 0.507 µM)	0.5 (≈ 1.01 µM)
CC(=S)NC[C@H]1CN(c2ccc(N3CCN(C(=S)c4ccsc4)CC3)c(F)c2)C(=O)O1 [Example 1, (S)-N-[3-[3-fluoro-4-[4(thiophen-3-ylthiocarbonyl)piperazin-1-yl]phenyl]-2-oxooxazolidin-5-ylmethyl]thioacetamide]	0.25 (≈ 0.522 µM)	0.25 (≈ 0.522 µM)	0.5 (≈ 1.04 µM)	1 (≈ 2.09 µM)	0.5 (≈ 1.04 µM)	0.5 (≈ 1.04 µM)	0.5 (≈ 1.04 µM)	0.5 (≈ 1.04 µM)	0.5 (≈ 1.04 µM)	0.25 (≈ 0.522 µM)	0.5 (≈ 1.04 µM)	1 (≈ 2.09 µM)	1 (≈ 2.09 µM)	0.5 (≈ 1.04 µM)	0.25 (≈ 0.522 µM)	0.25 (≈ 0.522 µM)
CC(=S)NC[C@H]1CN(c2ccc(N3CCN(C(=S)c4ccc(Cl)s4)CC3)c(F)c2)C(=O)O1 [Example 8, (S)-N-[3-[3-Fluoro-4-[4-(5-chlorothiophen-2-ylthiocarbonyl)piperazin-1-yl]phenyl]-2-oxooxazolidin-5-ylmethyl]thioacetamide]	0.25 (≈ 0.487 µM)	0.5 (≈ 0.974 µM)	0.25 (≈ 0.487 µM)	2 (≈ 3.9 µM)	0.5 (≈ 0.974 µM)	0.25 (≈ 0.487 µM)	0.25 (≈ 0.487 µM)	0.25 (≈ 0.487 µM)	0.5 (≈ 0.974 µM)	0.25 (≈ 0.487 µM)	0.5 (≈ 0.974 µM)	2 (≈ 3.9 µM)	2 (≈ 3.9 µM)	0.5 (≈ 0.974 µM)	0.25 (≈ 0.487 µM)	0.25 (≈ 0.487 µM)

The remaining lines, values ahead:

MIC (S. aureus MRO 00048) [µg/mL]	MIC (S. aureus ATCC 29213) [µg/mL]	MIC (S. aureus MRO 00059) [µg/mL]	MIC [1] [µg/mL]	MIC (S. aureus MRO 00055) [µg/mL]	MIC (E. faecalis ATCC 29212) [µg/mL]	MIC (E. fecalis MRO 04045) [µg/mL]	MIC (E. faecalis ATCC 51299) [µg/mL]	MIC (S. aureus MRO 00013) [µg/mL]	MIC (S. epidermidis MRO 02046) [µg/mL]	MIC (S. aureus MRO 00003) [µg/mL]	MIC [2] [µg/mL]	MIC [3] [µg/mL]	MIC (S. aureus MRO 00030) [µg/mL]	MIC (S. aureus MRO 00001) [µg/mL]	MIC (S. aureus ATCC 43300) [µg/mL]	SMILES
0.25 (≈ 0.527 µM)	0.5 (≈ 1.05 µM)	0.25 (≈ 0.527 µM)	2 (≈ 4.21 µM)	0.5 (≈ 1.05 µM)	0.25 (≈ 0.527 µM)	0.25 (≈ 0.527 µM)	0.25 (≈ 0.527 µM)	0.5 (≈ 1.05 µM)	0.25 (≈ 0.527 µM)	0.5 (≈ 1.05 µM)	2 (≈ 4.21 µM)	2 (≈ 4.21 µM)	0.5 (≈ 1.05 µM)	0.25 (≈ 0.527 µM)	0.25 (≈ 0.527 µM)	CC(=S)NC[C@H]1CN(c2ccc(N3CCN(C(=S)c4cnccn4)CC3)c(F)c2)C(=O)O1 [Example 14, (S)-N-[3-[3-Fluoro-4-[4-(pyrazin-2-ylthiocarbonyl)piperazin-1-yl]phenyl]-2-oxooxazolidin-5-ylmethyl]thioacetamide]
< 0.25	0.5 (≈ 1.08 µM)	0.5 (≈ 1.08 µM)	1 (≈ 2.16 µM)	1 (≈ 2.16 µM)	0.5 (≈ 1.08 µM)	1 (≈ 2.16 µM)	< 0.25	1 (≈ 2.16 µM)	< 0.25	0.5 (≈ 1.08 µM)	1 (≈ 2.16 µM)	1 (≈ 2.16 µM)	0.5 (≈ 1.08 µM)	0.5 (≈ 1.08 µM)	0.5 (≈ 1.08 µM)	CC(=S)NC[C@H]1CN(c2ccc(N3CCN(C(=S)c4ncc[nH]4)CC3)c(F)c2)C(=O)O1 [Example 22, (S)-N-[3-[3-Fluoro-4-[4-(imidazol-2-ylthiocarbonyl)piperazin-1-yl]phenyl]-2-oxooxazolidin-5-ylmethyl]thioacetamide]
